Reference: patent US11440932B2, “Surfactant compounds-clips for extraction and stabilization in solution of membrane proteins” (CENTRE NATIONAL DE LA RECHERCHE SCIENTIFIQUE, priority 2017, dated 2022)

Molecular target: T1, BmrA (Bacillus subtilis, UniProt O06967)
T1 construct: His tag; made in house; host or cells: E. coli C41(DE3)
Experiment: Size exclusion chromatography of BmrA after detergent exchange
Protocol: The membrane fraction was extracted and purified in DDM by Ni-NTA metal affinity and Superdex 200 size exclusion, before being reloaded on Ni-NTA in order to exchange the DDM either with itself or with the compound 3.7c. Each pool was subsequently loaded onto a 3 ml Superdex S200 5/150 size exclusion column and eluted in the presence of 2 CMC of the same detergent, as indicated. The proteins are detected by absorbance at 280 nm.
The capacity of the compounds of the invention to maintain the membrane proteins in a native state was exemplified with the compound 3.7c of the invention, monitored by size exclusion chromatography and compared to the reference detergent DDM.
Procedure: BmrA was extracted in DDM and purified by Ni-NTA affinity chromatography as described in example 13, then loaded onto a Superdex 200 10/300 size exclusion column and eluted with 50 mM Hepes-HCl pH 8.0, 100 mM NaCl, 0.4 mM DDM (2×CMC). The fractions containing BmrA were pooled and separated into several aliquots (˜100 μg) kept at 4° C. One aliquot was subsequently reloaded onto an affinity column containing 1 ml of resin. The DDM was then exchanged against 10 volumes of Hepes-NaCl buffer containing either 2 CMC of DDM (control experiment) or 2 CMC of compound 3.7c (2 mM). BmrA was subsequently eluted in the respective buffers with 100 mM of imidazole added. The fractions containing the proteins were combined and concentrated on 50 kDa amicon (regenerated cellulose) to 50 μl, and were then deposited on a 3 ml Superdex 200 5/150 size exclusion column, equilibrated in 50 mM Hepes-HCl pH 8.0, 100 mM NaCl, and 2 CMC of DDM (0.4 mM) or 3.7c (2 mM). The elution was subsequently carried out at 0.3 ml/min in the respective buffers and the BmrA detected at 280 nm.

T1 sequence (O06967 whole entry): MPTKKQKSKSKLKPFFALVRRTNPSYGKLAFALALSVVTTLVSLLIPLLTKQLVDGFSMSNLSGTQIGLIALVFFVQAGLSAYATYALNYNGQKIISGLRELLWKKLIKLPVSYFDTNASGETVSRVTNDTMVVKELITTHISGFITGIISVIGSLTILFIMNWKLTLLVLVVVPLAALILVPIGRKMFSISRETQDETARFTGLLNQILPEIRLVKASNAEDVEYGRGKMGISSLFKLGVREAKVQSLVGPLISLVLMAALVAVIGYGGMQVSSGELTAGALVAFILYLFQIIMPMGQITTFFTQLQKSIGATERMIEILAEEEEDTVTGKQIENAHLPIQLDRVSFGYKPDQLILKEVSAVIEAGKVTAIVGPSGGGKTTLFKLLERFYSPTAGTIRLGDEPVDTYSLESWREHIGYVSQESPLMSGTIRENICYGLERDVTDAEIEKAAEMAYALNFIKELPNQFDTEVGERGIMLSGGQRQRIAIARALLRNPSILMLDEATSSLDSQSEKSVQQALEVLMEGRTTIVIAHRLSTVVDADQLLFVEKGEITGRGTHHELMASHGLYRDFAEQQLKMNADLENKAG

CCCCCCCCCCCCCC(=O)N[C@@H](COCc1cn(CCO[C@@H]2OC(CO)[C@@H](O)C(O)C2O)nn1)C(=O)N[C@H](CCC(=O)O)C(=O)O (some centres unmarked) [Compound 3.7c]
elution volume of BmrA (Superdex 200 5/150, 2 CMC of detergent, 0.3 ml/min): ~1.6 mL
oligomerization state of BmrA (after exchange of DDM, 2 CMC (2 mM)): conserves the native oligomerization state
